Entries after “also recorded” stand apart in the source; their conditions may differ.
Columns and labels:
[1] = test system: inflammatory nociception (acetic acid-induced abdominal writhes) in C57BL/6 mice; assay: Abdominal writhing test (acetic acid-induced writhes); assay type: in vivo; details: mouse; for efficacy in abdominal writhing (racemate, diastereoisomers, CBC vs vehicle): one-way ANOVA post-hoc Bonferroni, FIG. 4A
Procedure: (§1) CBC and CBC-val-HS were dissolved in a solution of 10% ethanol/10% cremophore and 80% saline. Mice received IP injection of test compounds in a volume of 1.0 ml/kg for the abdominal writhing assay and 1.0 ml/kg, IP in the hot plate assay. For pharmacokinetic studies, drug was given in a volume of 1.0 ml/kg for tail vein and oral gavage administration. CBC-val-HS doses were calculated to be the dose equivalent of CBC.
(§2) All experimental procedures were approved by the University of Mississippi Institutional Animal Care and Use Committee (Protocol #19-009). Animal studies reported in compliance with the ARRIVE guidelines. Male wild-type C57BL/6 mice (7-10 weeks, 17-30 grams) were used for all behavioral studies and Male CD-1 (6-7 weeks, 20-25 grams) were used for all pharmacokinetic studies. Mice were purchased from Envigo, (Indianapolis, IN, USA) and acclimated for one week prior to experimentation. Mice were group-housed (n=4-5) in a polycarbonate tub with soft bedding in a temperature (22°±2) and humidity-controlled vivarium under a normal 12:12 h light/dark cycle (lights on at 06:00) with food and water ad libitum. Behavioral testing was performed during the hours of 08:00-18:00 with 30-minute acclimation to the testing room for all studies. Mice were assigned treatments through random block assignment per cage and experimenters were blinded to treatment conditions. Equipment was thoroughly sanitized with 70% ethanol between mice.
Abdominal writhing testing was used to quantify inflammatory nociception. Testing was conducted in clear, open-top, acrylic observation chambers (12.7×15.24 cm) located on a smooth surface. Test compounds were administered IP 30 minutes prior to behavioral testing. For testing, mice were then given an IP injection of 0.7% acetic acid in a volume of 10.0 ml/1 kg and immediately placed in an observation chamber for 30-minute test. The number of abdominal writhes served as the dependent measure.

[2] = Pharmacokinetic study, plasma levels by LC-MS-MS; assay type: in vivo, mouse
Procedure: as §1, §2
A pharmacokinetic study of CBC and CBC-val-HS was conducted using either intraperitoneal (IP), oral gavage, or and intravenous (IV; lateral tail vein) administration routes. For each route, four to five subjects were sacrificed at 0, 0.05, 0.25, 0.5, 1, 2, 4, 8, and 24 hr after drug administration. Mice were anesthetized with isoflurane, and whole blood was collected by cardiac puncture. Plasma was isolated by centrifugation (2000 rpm, 5 min) and stored at −80° C. until assayed.
For CBC in the plasma samples were extracted using solid phase cartridges. CBC-VHS plasma samples were diluted with cold acetonitrile, sonicated, centrifuged, transferred supernatant to another extraction tube, evaporated the solvent and reconstituted with acetonitrile for the analysis. The LC-MS-MS system consists of a Shimadzu Prominence UHPLC with a dual pump, a vacuum solvent micro-degasser, a controlled-temperature auto-sampler, and an MS-MS detector (Applied Biosystems/MSD Sciex QTRAP 4500/3200 with a turbo-ion ESI source operating the positive-ion multiple reaction monitoring, or MRM, mode). […] Deuterated internal standard D3-CBC was used for the quantitation of CBC and CBCVHS. The peak area corresponding to each extracted MRM was measured and correlated to a multiple point calibration curve to determine the plasma concentration of each analyte. […]

[3] = test system: thermal nociception in C57BL/6 mice; assay: Hot plate test (thermal nociception, 52° C.); assay type: in vivo; details: mouse, IP 30 minutes prior; FIG. 4B
Procedure: as §1
as §2, with “Mice were assigned treatments through random block assignment per cage and experimenters were blinded to treatment conditions. Equipment was thoroughly sanitized with 70% ethanol between mice.” left out
The hot plate (Harvard Instruments, Model #52-8570) was used to quantify thermal nociception. […]

intestinal inflammation = details: far lower doses; cited from earlier work
nociception = details: effect was time-dependent; cited from earlier work
paw edema = details: restricted to high doses of over 100 mg/kg; cited from earlier work
[4] = after parenteral administration; cited from earlier work

CCCCCc1cc(OC(=O)C(NC(=O)CCC(=O)O)C(C)C)c2c(c1)OC(C)(CCC=C(C)C)C=C2 (racemic) [CBC-Val-HS, cannabichromene-valinate-hemisuccinate]
number of acid-induced abdominal writhes ([1]; increasing doses, IP 30 minutes prior to acetic acid injection, FIG. 2): significantly decreased | overall efficacy or potency in comparison to CBC, abdominal writhing ([1]; IP, two-way ANOVA, drug factor F=1.62, p=0.38): No differences in overall efficacy or potency; also recorded: equally efficacious | efficacy in abdominal writhing (racemate, diastereoisomers, CBC vs vehicle) [1]: as effective as CBC | peak concentration relative to peak concentration of CBC at the same dose equivalent ([2]; intravenous administration, in the hour following administration, FIG. 3A): greater than 10 × higher | chemical entity detected in circulating plasma ([2]; parenteral or oral administration to animals): the major chemical component detected in the circulating plasma is the intact CBC-Val-HS; also recorded: a majority of CBC-Val-HS remained intact in circulation | fraction observed in the plasma as intact CBC-Val-HS ([2]; plasma after administration): two-thirds | fraction of the derivative observed in the plasma as free CBC ([2]; plasma after administration): about one-third | latency to hotplate withdrawal (anti-nociception against thermal pain) [3]: displayed anti-nociceptive potential

CCCCCc1cc(O)c2c(c1)OC(C)(CCC=C(C)C)C=C2 (centres unmarked) [CBC, Cannabichromene]
activity against intestinal inflammation in vivo (intestinal inflammation): protective activity | efficacy in abdominal writhing (racemate, diastereoisomers, CBC vs vehicle) [1]: effective | anti-nociceptive effect in tail-flick (nociception): biphasic anti-nociceptive effects | anti-inflammatory / anti-edematous properties in vivo (paw edema): mild anti-inflammatory, or anti-edematous properties

C=C(C)C1CCC(C)=CC1c1c(OC(=O)[C@@H](NC(=O)CCC(=O)O)C(C)C)cc(CCCCC)cc1OC(=O)[C@@H](NC(=O)CCC(=O)O)C(C)C (some centres unmarked) [CBD-Val-HS]
presence of the Val-HS derivative in plasma (comparator cannabinoid derivatives) [4]: the only entity found in the plasma

CCCCCc1cc(OC(=O)C(NC(=O)CCC(=O)O)C(C)C)c2c(c1)OC(C)(C)C1CCC(C)=CC21 (centres unmarked) [THC-Val-HS]
presence of the Val-HS derivative in plasma (comparator cannabinoid derivatives) [4]: not found in plasma

From patent publication US20240336587A1, “CANNABICHROMENE DERIVATIVES AND METHODS FOR MAKING AND USING THE SAME” (University of Mississippi, priority 2021, published 2024)
